One experiment relates to FGF2 mitogenic activity. Also noted: method as in PMID 12676958. The conditions noted are these: read-out: IC50, inhibition of FGF2 mitogenic activity; cited from earlier work.
Experiment [1] deals with T1, FGF2 (Homo sapiens, UniProt P09038, A3E/C211S/C229S/S5E).
T1 construct: purchased ASLA (Riga, Latvia)
The experiment can be described thus: NMR titration (1H-15N HSQC) of 15N-labeled FGF2. Type of experiment: binding. The note with it: pH 5.5, 25 °C. As to the method: In order to investigate whether the functionalized phenylamino-substituted naphthalenes maintained the ability of TSP-1 and SM27 to target the heparin interaction site of FGF2[16][21], interaction studies between SM.1–31 or SM.1–34 (showing the highest activity) and FGF2 were performed by NMR. Each SM was titrated into a solution of ^15N-enriched FGF2 protein and a series of 2D ^1H^15N-HSQC experiments were recorded to follow the protein changes induced by the ligand. […] Residues showing the highest perturbations are Arg129 and Lys144, as previously observed for SM27, pointing to similar interactions that likely involve inhibitors SO3 groups.
NMR samples contained 0.57 mM ^15N-labeled FGF2, dissolved in a buffer containing 50 mM potassium phosphate, 2 mM NaN3, and 10 mM deuterated DTT in 90% H2O/10% D2O, pH 5.5. For the identification of the binding region, SM.1–34 and SM.1–31 were incrementally added to protein solutions up to SM:FGF2 stoichiometric ratio of 3. NMR data were collected on a Bruker DMX 500 MHz spectrometer at 25 °C. 2D ^1H-^15N HSQC spectra were recorded with a sweep width of 13 ppm (^1H) and 40 ppm (^15N). 1k × 128 data points were used in proton and nitrogen dimensions, respectively. Data, acquired and processed using Topspin (Bruker Biospin), were apodized with a squared sinebell shifted by 90° and polynomial baseline correction. […]

For another experiment, the system named is BAEC. The experiment can be described thus: FGF2-induced endothelial cell proliferation assay. Type of experiment: cell-based, Bovine. The conditions noted are these: FGF2 5 ng/ml, 72 h. The method, then:
(§1) Figure 4 Biological activity of the selected hits. (A) Endothelial cell proliferation. BAEC were exposed to FGF2 (5 ng/ml) with increasing concentrations of molecules (3–80 μM). After 72 h, cells were stained and proliferation measured as absorbance. Data are the percentage of control proliferation (in absence of molecules), mean of value from 2 experiments performed in triplicate. (B–D) Aortic ring assay. Sections of murine aortas were embedded in Matrigel, in the presence of FGF2 (30 ng/ml) and the indicated small molecule. The formation of capillary structures sprouting from the rings was analyzed after 7 and 11 days as described in Methods, and the angiogenic response expressed as area covered by the sprouting structures (arbitrary units, mean and SE, n ≥ 6). (B) Antiangiogenic activity of the small molecules (100 μM). (C) Examples of time-dependent and dose-dependent effect of two compounds (SM.2–20 and SM.2–23), tested at 100 (diamond), 50 (circle) and 25 μM (triangle) compared to control (black squares). (D) Representative pictures of sprouting from control and SM.2–23 treated aortic sections. […] (E) Angiogenic response is evaluated 4 days later, and expressed as number of vessels entering the sponge (mean and SD). […]
BAEC (2500 cells/well) were plated in 96-well plates in DMEM 1.5% FCS. […] Plates were then stained with crystal violet or MTS and analyzed as described.

Experiment [2] concerns the target T2, FGF2 (Homo sapiens, UniProt P09038).
T2 construct: purchased R&D Systems, obtained through the NCI-Biological Resources Branch
Description: Competition with biotinylated recombinant TSP-1 domain (E123CaG1) for binding to FGF2 (DELFIA). The note with it: for ability to bind FGF2 in the competition assay (phenylamino-substituted naphthalenes): Fig. 6B; for prevention of FGF2/TSP-1 binding (first screening): 5 μM. From the text: Of the identified hits, 23 (Fig. 1 and Suppl. Table S1), made available from the NCI (NIH), were subjected to experimental analysis of FGF2 binding. We used an indirect assay, based on the competition of the tested molecules with the recombinant TSP-1 type III domain for binding to FGF2, an approach previously employed to analyze the FGF2/SM27 binding.
Figure 2 FGF2-binding property of the selected hits, analyzed with an indirect assay, as ability to compete with the TSP-1 fragment E123CaG1 (comprising the type III repeats domain) for FGF2 binding, as described in Methods. Binding of the biotinylated recombinant domain to FGF2 in the presence or absence of each molecule (5 μM). Data are the percentage of control binding, mean and SE of 3 experiments performed in triplicate. *p < 0.05 compared to control (ANOVA followed by Bonferroni test).
DELFIA® Microtitration plates and reagents were from PerkinElmer. Plates were coated overnight at 4 °C with FGF2 (0.1 μg in 40 μl /well PBS). After washing, non-specific binding sites were saturated by a 30 minute incubation with PBS 1% BSA. The biotin-labeled recombinant TSP-1 fragment (10 nM) was added in 40 μl PBS 1% BSA with or without the indicated concentration of small molecules, and incubated for 3 h at room temperature. The plates were washed with PBS 0.1% BSA and incubated for 1 h with 100 μl/well Eu-Labeled Streptavidin 1:1000 at room temperature. After washing, plates were incubated with DELFIA® Enhancement Solution. Time resolved fluorescence was measured using a Victor[3] multilabel plate reader (PerkinElmer).

The target in experiment [3] is T2, FGF2. The experiment is described as above. The conditions noted are these: for IC50: mean ± SE of 3 experiments; for fold more active than the initial query SM27 (competition IC50): vs SM27.
Experiment [4] concerns FGF2-induced angiogenesis. Description: Chorioallantoic membrane (CAM) assay. Type of experiment: in vivo, White Leghorn chicken. The note with it: FGF2 200 ng, compound 0.5 μg. The method, then:
as §1, with “μM).” for “μM). (C) Examples of time-dependent and dose-dependent effect of two compounds (SM.2–20 and SM.2–23), tested at 100 (diamond), 50 (circle) and 25 μM (triangle) compared to control (black squares). (D) Representative pictures of sprouting from control and SM.2–23 treated aortic sections.”
Fertilized White Leghorn chicken eggs were incubated at 37 °C at constant humidity. […] At day 12, CAMs were photographed in ovo under a stereomicroscope (Olympus), and blood vessels entering the sponge within the focal plane of the CAM were counted by two observers in double blind.

The subject of experiment [5] is FGF2-induced vessels sprouting, murine aortic rings. The experiment can be described thus: Aortic rings assay (FGF2-induced vessels sprouting, 3D Matrigel). The note with it: FGF2 30 ng/ml, small molecules 100 μM. More on the design: species or system C57BL/6 mice. The method, then:
Figure 4 Biological activity of the selected hits. (A) Endothelial cell proliferation. BAEC were exposed to FGF2 (5 ng/ml) with increasing concentrations of molecules (3–80 μM). After 72 h, cells were stained and proliferation measured as absorbance. Data are the percentage of control proliferation (in absence of molecules), mean of value from 2 experiments performed in triplicate. (B–D) Aortic ring assay. Sections of murine aortas were embedded in Matrigel, in the presence of FGF2 (30 ng/ml) and the indicated small molecule. The formation of capillary structures sprouting from the rings was analyzed after 7 and 11 days as described in Methods, and the angiogenic response expressed as area covered by the sprouting structures (arbitrary units, mean and SE, n ≥ 6). (B) Antiangiogenic activity of the small molecules (100 μM). (C) Examples of time-dependent and dose-dependent effect of two compounds (SM.2–20 and SM.2–23), tested at 100 (diamond), 50 (circle) and 25 μM (triangle) compared to control (black squares). (D) Representative pictures of sprouting from control and SM.2–23 treated aortic sections. Original magnification, 20x. (E,F) Chorioallantoic membrane assay. FGF2 (200 ng) was administered in the absence or presence of the indicated compound (0.5 μg) on day 8 (n = 10). (E) Angiogenic response is evaluated 4 days later, and expressed as number of vessels entering the sponge (mean and SD). (F) Representative pictures are shown. Original magnification, 50x.
Thoracic aortas were removed from mice, cleaned of perivascular adipose tissue and cut into 1 mm segments. Matrigel (75 μl, BD Biosciences) was added to 96 well plates, and allowed to gellify at 37 °C for 30 min. Aortic sections were added to the wells, and covered with a second layer of Matrigel and DMEM 5% FCS containing FGF2 (30 ng/ml) and the indicated concentration of the compounds. The formation of capillary structures sprouting from the rings was analyzed after 4, 7 and 11 days with an inverted-phase contrast microscope (IX70; Olympus). Images were analyzed with ImageJ 1.48, and the angiogenic response expressed as area covered by the sprouting structures (arbitrary units), substracted the area of the aortic section.

Experiment [6] concerns the target T2, FGF2. Description: SPR direct binding to sensorchip-immobilized FGF2. The conditions noted are these: single site model, one experiment representative of two, read-out: Kd (dissociation constant) of FGF2/compound interaction. As to the method: SPR measurements were performed on a BIAcore X100 instrument (GE-Healthcare, WI). FGF2 was immobilized on a CM5 sensorchip (GE-Healthcare) as described, allowing the immobilization of 7,365 resonance units (RU) (410 fmol/mm^2 of FGF-2).
Suppl. Table S2. Determination of the affinity (Kd) of the FGF2/compound interactions by
Binding parameters were calculated by the non-linear curve fitting software package BIAevaluation
3.2 using a single site model with correction for mass transfer. Dissociation constant (Kd) values
were derived from the dissociation rate/association ratio. Only sensorgrams whose fitting gave
values of X2 lower than 10 were used {Khalifa, 2001 #213}.

The source of these data is paper PMC4802308, “Integrating computational and chemical biology tools in the discovery of antiangiogenic small molecule ligands of FGF2 derived from endogenous inhibitors” (Scientific Reports, 2016).

T2 sequence (P09038 134-288 limits assumed): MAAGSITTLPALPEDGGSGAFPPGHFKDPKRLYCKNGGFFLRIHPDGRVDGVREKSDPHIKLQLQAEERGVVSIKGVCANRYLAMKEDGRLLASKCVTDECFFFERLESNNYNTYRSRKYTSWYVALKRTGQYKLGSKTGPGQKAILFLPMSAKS
T1 sequence (P09038 with tags, fused parts or gaps isoform P09038-2 C78S/C96S limits assumed): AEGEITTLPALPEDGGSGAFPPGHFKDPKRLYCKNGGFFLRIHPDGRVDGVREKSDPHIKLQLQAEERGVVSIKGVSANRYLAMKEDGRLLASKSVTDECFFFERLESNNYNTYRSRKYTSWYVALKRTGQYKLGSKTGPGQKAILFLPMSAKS

As to `Nc1cccc2cc(S(=O)(=O)O)ccc12` [5-amino-2-naphthalenesulfonate], the half-inhibitory concentration (IC50) in the experiment on FGF2 mitogenic activity is 265 µM.

`O=S(=O)([O-])c1cccc2cc(Nc3ccccc3)ccc12.[Na+]` [SM.1–31, sodium 6-(phenylamino)naphthalene-1-sulfonate]: the “affinity for FGF2 indicated by NMR titration” value at FGF2 [1] was “high micromolar range”. Moreover, the “inhibition of FGF2-induced endothelial cell proliferation (antiproliferative activity)” value in the experiment with BAEC is “increased activity”. Also, on FGF2 [2], the “ability to bind FGF2 in the competition assay (phenylamino-substituted naphthalenes)” value (“ability to bind FGF2” below) is “most active”.

`Oc1cccc2ccc(Nc3ccccc3)cc12` [SM.1–33, 8-hydroxy-N-phenylanaphthalen-2-aminium chloride]: the “inhibition of FGF2-induced endothelial cell proliferation (antiproliferative activity)” value with BAEC is “significant loss of activity”. Moreover, the “ability to bind FGF2” value on FGF2 [2] was “inactive”.

Take `O=S(=O)([O-])c1cc(S(=O)(=O)[O-])c2ccc(Nc3ccccc3)cc2c1O.[Na+].[Na+]` [SM.1–34, sodium 4-hydroxy-6-(phenylamino)naphthalene-1,3-disulfonate]: on FGF2 [1], the “affinity for FGF2 indicated by NMR titration” value is “high micromolar range”. On FGF2 [2], the “ability to bind FGF2” value is listed as “most active”.

In the case of `O=C(Nc1ccc2cc(S(=O)(=O)O)cc(S(=O)(=O)O)c2c1)Nc1ccc2cc(S(=O)(=O)O)cc(S(=O)(=O)O)c2c1` [SM.2–11, 7,7'-(carbonylbis(azanediyl))bis(naphthalene-1,3-disulfonic acid)], at FGF2 [2], the “prevention of FGF2/TSP-1 binding (first screening)” value is reported as “lost”.

As for `O=C(Nc1ccc2c(O)c(/N=N/c3ccccc3)c(S(=O)(=O)O)cc2c1)Nc1ccc2c(O)c(/N=N/c3ccccc3)c(S(=O)(=O)O)cc2c1` [SM.2–12, 4-hydroxy-7-(3-(5-hydroxy-6-((E)-phenyldiazenyl)-7-sulfonaphthalen-2-yl)ureido)-3-((E)-phenyldiazenyl)naphthalene-2-sulfonic acid], the “prevention of FGF2/TSP-1 binding (first screening)” value at FGF2 [2] is recorded as “reduced activity”.

Take `Nc1cccc(/N=N/c2c(S(=O)(=O)O)cc3cc(NC(=O)Nc4ccc5c(O)c(/N=N/c6cccc(N)c6)c(S(=O)(=O)O)cc5c4)ccc3c2O)c1` [SM.2–18, 3-((E)-(3-aminophenyl)diazenyl)-7-(3-(6-((E)-(3-aminophenyl)diazenyl)-5-hydroxy-7-sulfonaphthalen-2-yl)ureido)-4-hydroxynaphthalene-2-sulfonic acid]: on FGF2 [3], the concentration for half-maximal inhibition (IC50) worked out at 610 ± 60 nM and the “fold more active than the initial query SM27 (competition IC50)” value is recorded as 6–11 fold. The “inhibition of FGF2-induced angiogenesis in the CAM assay” value in experiment [4] is “active”.

For the compound `Cc1ccc(C)c(/N=N/c2c(S(=O)(=O)O)cc3cc(NC(=O)Nc4ccc5c(O)c(/N=N/c6ccc7cc(S(=O)(=O)O)ccc7c6)c(S(=O)(=O)O)cc5c4)ccc3c2O)c1` [SM.2–24, 3-((E)-(2,5-dimethylphenyl)diazenyl)-4-hydroxy-7-(3-(5-hydroxy-7-sulfo-6-((E)-(6-sulfonaphthalen-2-yl)diazenyl)naphthalen-2-yl)ureido)naphthalene-2-sulfonic acid], the “inhibition of FGF2-induced vessels sprouting” value in experiment [5] is given as “significantly inhibited”. Further, at FGF2 [3], the IC50 is 460 ± 100 nM and the “fold more active than the initial query SM27 (competition IC50)” value is reported as 6–11 fold. Also, the “inhibition of FGF2-induced angiogenesis in the CAM assay” value in experiment [4] is “active”. Also, the Kd at FGF2 [6] was 111 nM.

For orientation: IC50 means the concentration that inhibits the measured activity by half.
